Assay results published in ChEMBL document CHEMBL1131561, “Peptidomimetic aminomethylene ketone inhibitors of interleukin-1 beta-converting enzyme (ICE)” (Bioorg Med Chem Lett, 1998).

Molecular target: T1, Caspase-1 (Homo sapiens, UniProt P29466)
T1 sequence (P29466 whole entry): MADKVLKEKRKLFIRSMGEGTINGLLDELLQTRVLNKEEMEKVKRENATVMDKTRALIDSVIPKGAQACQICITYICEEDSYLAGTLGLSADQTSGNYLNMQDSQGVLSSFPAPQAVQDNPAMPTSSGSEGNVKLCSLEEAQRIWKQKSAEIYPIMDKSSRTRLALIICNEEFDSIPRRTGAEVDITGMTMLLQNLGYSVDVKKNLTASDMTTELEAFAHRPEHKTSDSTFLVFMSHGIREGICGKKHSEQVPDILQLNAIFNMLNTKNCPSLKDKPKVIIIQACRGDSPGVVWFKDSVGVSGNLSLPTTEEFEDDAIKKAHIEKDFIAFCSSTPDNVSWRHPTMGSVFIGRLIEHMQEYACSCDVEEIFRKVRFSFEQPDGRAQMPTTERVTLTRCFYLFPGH
Assay: Inhibition of human recombinant IL-1 beta converting enzyme

SMILES	Ki
CCC(C(=O)N[C@@H](CC(=O)O)C(=O)CN(C)CCc1ccccc1)n1cccc(NC(=O)c2ccc3ccccc3c2)c1=O (stereo not given in full)	4.8 nM
CCC(C(=O)N[C@@H](CC(=O)O)C(=O)CN(C)C)n1cccc(NC(=O)c2ccc3ccccc3c2)c1=O (stereo not given in full)	22.8 nM
CCC(C(=O)N[C@@H](CC(=O)O)C(=O)CN(C)[C@@H](Cc1ccccc1)C(N)=O)n1cccc(NC(=O)c2ccc3ccccc3c2)c1=O (stereo not given in full)	255 nM
CCC(C(=O)NC(CC(=O)O)C(=O)CNC(C)=O)n1cccc(NC(=O)c2ccc3ccccc3c2)c1=O (stereo not given)	117 nM
CCC(C(=O)NC(CC(=O)O)C(=O)Cn1ccccc1=O)n1cccc(NC(=O)c2ccc3ccccc3c2)c1=O (stereo not given)	1650 nM
CCOC(=O)C1CCN(CC(=O)C(CC(=O)O)NC(=O)C(CC)n2cccc(NC(=O)c3ccc4ccccc4c3)c2=O)CC1 (stereo not given)	8 nM
CCC(C(=O)NC(CC(=O)O)C(=O)CN1CCNCC1)n1cccc(NC(=O)c2ccc3ccccc3c2)c1=O (stereo not given)	410 nM
CCC(C(=O)N[C@@H](CC(=O)O)C(=O)CN[C@@H](Cc1ccccc1)C(N)=O)n1cccc(NC(=O)c2ccc3ccccc3c2)c1=O (stereo not given in full)	78 nM
CCCCNCC(=O)[C@H](CC(=O)O)NC(=O)C(CC)n1cccc(NC(=O)c2ccc3ccccc3c2)c1=O (stereo not given in full)	0.76 nM
CCC(C(=O)N[C@@H](CC(=O)O)C(=O)CN(C)CCCC(N)=O)n1cccc(NC(=O)c2ccc3ccccc3c2)c1=O (stereo not given in full)	37 nM
CCCC(=O)NCC(=O)C(CC(=O)O)NC(=O)C(CC)n1cccc(NC(=O)c2ccc3ccccc3c2)c1=O (stereo not given)	81 nM
CCC(C(=O)N[C@@H](CC(=O)O)C(=O)CNCCCc1ccccc1)n1cccc(NC(=O)c2ccc3ccccc3c2)c1=O (stereo not given in full)	1.15 nM
CCCCN(CC)CC(=O)[C@H](CC(=O)O)NC(=O)C(CC)n1cccc(NC(=O)c2ccc3ccccc3c2)c1=O (stereo not given in full)	2.3 nM
CCCCCC(=O)NCC(=O)C(CC(=O)O)NC(=O)C(CC)n1cccc(NC(=O)c2ccc3ccccc3c2)c1=O (stereo not given)	34.3 nM
CCC(C(=O)NC(CC(=O)O)C(=O)CN1CCN(C)CC1)n1cccc(NC(=O)c2ccc3ccccc3c2)c1=O (stereo not given)	62.5 nM
CCC(C(=O)NC(CC(=O)O)C(=O)CN1CCSCC1)n1cccc(NC(=O)c2ccc3ccccc3c2)c1=O (stereo not given)	11.2 nM
CCC(C(=O)NC(CC(=O)O)C(=O)CNC(=O)c1ccccc1)n1cccc(NC(=O)c2ccc3ccccc3c2)c1=O (stereo not given)	57.5 nM

Second part, the molecule after the results:

Ki	SMILES
3.05 nM	CCC(C(=O)N[C@@H](CC(=O)O)C(=O)CNCc1ccccc1)n1cccc(NC(=O)c2ccc3ccccc3c2)c1=O (stereo not given in full)
0.85 nM	CCCCCCNCC(=O)[C@H](CC(=O)O)NC(=O)C(CC)n1cccc(NC(=O)c2ccc3ccccc3c2)c1=O (stereo not given in full)
1.79 nM	CCCCCCN(C)CC(=O)[C@H](CC(=O)O)NC(=O)C(CC)n1cccc(NC(=O)c2ccc3ccccc3c2)c1=O (stereo not given in full)
395 nM	CCC(C(=O)NC(CC(=O)O)C(=O)Cn1ccc(=O)cc1)n1cccc(NC(=O)c2ccc3ccccc3c2)c1=O (stereo not given)
58 nM	CCC(C(=O)N[C@@H](CC(=O)O)C(=O)CN(C)Cc1ccccc1)n1cccc(NC(=O)c2ccc3ccccc3c2)c1=O (stereo not given in full)
4 nM	CCC(C(=O)NC(CC(=O)O)C(=O)CN1CCCCC1)n1cccc(NC(=O)c2ccc3ccccc3c2)c1=O (stereo not given)
7.3 nM	CCC(C(=O)NC(CC(=O)O)C(=O)CN1CCCC1)n1cccc(NC(=O)c2ccc3ccccc3c2)c1=O (stereo not given)
45 nM	CCC(C(=O)NC(CC(=O)O)C(=O)CN1CCOCC1)n1cccc(NC(=O)c2ccc3ccccc3c2)c1=O (stereo not given)
2.39 nM	CCCCCCN(CCCCCC)CC(=O)[C@H](CC(=O)O)NC(=O)C(CC)n1cccc(NC(=O)c2ccc3ccccc3c2)c1=O (stereo not given in full)
3.1 nM	CCCCN(C)CC(=O)[C@H](CC(=O)O)NC(=O)C(CC)n1cccc(NC(=O)c2ccc3ccccc3c2)c1=O (stereo not given in full)
25 nM	CCC(C(=O)N[C@@H](CC(=O)O)C(=O)CN[C@H](Cc1ccccc1)C(N)=O)n1cccc(NC(=O)c2ccc3ccccc3c2)c1=O (stereo not given in full)
0.37 nM	CCC(C(=O)N[C@@H](CC(=O)O)C(=O)CNCCc1ccccc1)n1cccc(NC(=O)c2ccc3ccccc3c2)c1=O (stereo not given in full)
11.6 nM	CCC(C(=O)NC(CC(=O)O)C(=O)CN1CCC(C(N)=O)CC1)n1cccc(NC(=O)c2ccc3ccccc3c2)c1=O (stereo not given)
